Entries after “also recorded” stand apart in the source; their conditions may differ. Where two headings read alike, the source gives them in different places.
Tests used:
recombinant PfGSK-3 = biological target: T1, recombinant PfGSK-3 (Plasmodium falciparum, UniProt O77344); experiment: PfGSK-3 inhibition assay (KinaseGlo Plus); assay type: biochemical; conditions: tested up to a concentration of 10 µM, kinase Glo assay
T1 construct: 6xHis (N, cleaved yes); GST (N, cleaved yes); made in house; host or cells: E. coli BL21 (DE3)-RIL
T1 sequence (O77344 entry or part of it): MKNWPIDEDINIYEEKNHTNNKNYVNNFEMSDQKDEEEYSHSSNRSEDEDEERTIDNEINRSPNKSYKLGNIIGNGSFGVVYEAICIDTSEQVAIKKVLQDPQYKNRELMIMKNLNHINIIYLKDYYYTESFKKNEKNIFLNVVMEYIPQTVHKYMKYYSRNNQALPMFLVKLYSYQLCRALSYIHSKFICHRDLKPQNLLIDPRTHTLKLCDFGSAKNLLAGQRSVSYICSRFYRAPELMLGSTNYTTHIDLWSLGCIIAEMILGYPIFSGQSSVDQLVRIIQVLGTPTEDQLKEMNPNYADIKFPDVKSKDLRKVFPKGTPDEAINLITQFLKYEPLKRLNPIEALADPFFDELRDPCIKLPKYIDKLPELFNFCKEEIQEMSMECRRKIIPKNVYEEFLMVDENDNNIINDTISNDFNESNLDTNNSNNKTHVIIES
Protocol: PfGSK-3 was produced as published before. In brief, PfGSK-3 was cloned into pOPIN J expression vector [57] which was transformed into E. coli BL21 (DE3)-RIL. Expression of recombinant 6xHis-GST-PfGSK-3 was induced by incubation with isopropyl β-D-1-thiogalactopyranoside (IPTG). The recombinant protein was purified by affinity chromatography using glutathione resin and elution by digestion with human rhinovirus 3C protease.
The PfGSK-3 inhibition assay was carried out using the commercial KinaseGlo Plus assay (KinaseGlo Plus, Promega) as described before. In brief, the kinase and a corresponding substrate (GS-1 substrate, Promega) in the presence of ATP were used to perform substrate phosphorylation. Subsequently, luminescence is generated utilizing luciferase which is a component of the KinaseGlo Reagent. The intensity of the luminescence signal corresponds to the amount of remaining ATP in the reaction mixture. For the investigation, potential kinase inhibitors were dissolved in DMSO and were added directly to the kinase reaction. The final DMSO concentration in the kinase reaction was at most 1%. As the negative control, 1% DMSO without test compound was measured. A control reaction without kinase was measured simultaneously. The difference between kinase reaction and control reaction corresponds to the kinase activity.

[1] = system: P. falciparum (NF54-luc strain) erythrocytic stages; experiment: Luciferase-based viability screening for antiplasmodial activity; assay type: cell-based, Plasmodium falciparum; conditions: Plasmodium falciparum; for inhibition at 3 µM: read-out: Inhibition at 3 µM [%]
Protocol: All synthesized new bisindolylcyclobutenediones 2a–2ar and the related bisindolylmaleimide 8 [37] were screened for inhibition of erythrocytic stages of Plasmodium falciparum employing a bioluminescence-based viability assay on transgenic parasites that constitutively express luciferase (PfNF54-luc). Initially, the compounds were evaluated in single-dose test runs (3 µM). If >20% viability inhibition was observed, dose-response curves were generated and IC50 values were calculated (Table 1). […] The bisindolylmaleimide 8 [37] inhibited the parasites in a single-digit micromolar concentration, similar to many of the bisindolylcyclobutenediones in the study. Because the bisindolylcyclobutenediones 2 display a higher degree of structural novelty, only this compound class was further pursued for its antiplasmodial activity. […] These structural features were considered unfavorable for orientations as illustrated in Figure 2 with 2a and Pfmap-2, PfPK5, PfCDPK2, Pflammer, and PfPK7, respectively. However, a structure generated for 2a in PfGSK-3 in which the indole units are oriented perpendicular to each other (Figure 2a) was considered compatible with the indicated substitution pattern. Consequently, the potent antiplasmodial derivatives 2k, 2ad, and 2ae were tested in a kinase Glo assay for inhibition of recombinant PfGSK-3. […] For the compounds with particularly potent antiplasmodial activity, cytotoxicity was also determined using the human cell line THP-1 to assess selectivity with respect to parasite cells (Table 2).
Screening for the antiplasmodial activity of test compounds was performed by luciferase-based viability assays as reported previously. In brief, asexual erythrocytic stages of transgenic NF54-luc P. falciparum were cultured as described elsewhere. Parasite cultures with parasitaemia of 0.5–1% were incubated in the presence of 3 µM test compounds for 48 h. After the subsequent addition of Bright-Glo substrate solution (Promega, Madison, WI), the resulting luminescence was measured. Untreated cultures (0.01% DMSO) were used as negative controls. Experiments were performed in triplicate and were repeated as a whole at least twice. Blasticidin (Sigma-Aldrich, St. Louis, MO, USA) was included as a positive control.

human THP-1 cell line = experiment: Cytotoxicity assay on human THP-1 cell line (Alamar Blue); assay type: cell-based; conditions: for Selectivity Index (SI) = IC50, THP-1/IC50, Pf: THP-1 versus P. falciparum NF54-luc; for IC50: human THP-1 cell line, 48 h, Alamar Blue
Protocol: The cytotoxicity of selected antiplasmodial bisindolylcyclobutenediones was determined against THP-1 cells following a protocol described previously. In brief, THP-1 cells were incubated with test compounds in serial compound dilutions in the presence of 0.01% DMSO at 37 °C. After 48 h, Alamar Blue was added, and after 4 h the fluorescence was read (λex = 544 nm, λem = 590 nm) using a microplate reader. THP-1 cells in wells containing medium plus 0.01% DMSO served as negative controls. Experiments were performed in triplicate and were repeated as a whole at least twice.

[2] = NF54, 48 h, read-out: IC50 [µM], concentration for 50% inhibition of P. falciparum (NF54-luc strain) erythrocytic stages

Row | Compound | Inhibition of recombinant PfGSK-3 (recombinant PfGSK-3) | IC50 [1, 2] [µM] | inhibition at 3 µM ([1]; NF54, 48 h) [%] | IC50 ([1]; NF54, read-out: IC50, Pf [µM]) [µM] | Selectivity Index (SI) = IC50, THP-1/IC50, Pf (human THP-1 cell line) | IC50 (human THP-1 cell line) [nM]
1 | COc1ccc2[nH]cc(-c3c(-c4c[nH]c5ccc(Br)cc45)c(=O)c3=O)c2c1 [2ad, 3-(5-Bromo-1H-indol-3-yl)-4-(5-methoxy-1H-indol-3-yl)cyclobut-3-ene-1,2-dione] | failed to show kinase inhibitory activity; also recorded: inactive; also recorded: did not inhibit PfGSK-3 | 0.47 | 98.8 ± 0.7 | 0.47 | 30 | 14100
2 | COc1ccc2[nH]cc(-c3c(-c4c[nH]c5ccc(I)cc45)c(=O)c3=O)c2c1 [2ae, 3-(5-Iodo-1H-indol-3-yl)-4-(5-methoxy-1H-indol-3-yl)cyclobut-3-en-1,2-dione] | failed to show kinase inhibitory activity; also recorded: inactive; also recorded: did not inhibit PfGSK-3 | 0.64 |  | 0.64 | 23 | 14500
3 | CN(C)CCCn1cc(-c2c(-c3c[nH]c4ccccc34)c(=O)c2=O)c2ccccc21 [2k, 3-{1-[3-(Dimethylamino)propyl]-1H-indol-3-yl}-4-(1H-indol-3-yl)cyclobut-3-ene-1,2-dione] | failed to show kinase inhibitory activity; also recorded: inactive; also recorded: did not inhibit PfGSK-3 | 0.376 | 98.1 ± 1.8 | 0.38 | 34 | 12800
4 | O=c1c(-c2c[nH]c3ccccc23)c(-c2c[nH]c3ccc(I)cc23)c1=O [2r, 3-(1H-Indol-3-yl)-4-(5-iodo-1H-indol-3-yl)cyclobut-3-ene-1,2-dione] |  | 0.915 |  | 0.92 | 7.9 | 7250
5 | Cn1cc(-c2c(-c3c(-c4ccccc4)[nH]c4ccccc34)c(=O)c2=O)c2ccccc21 [2u, 3-(1-Methyl-1H-indol-3-yl)-4-(2-phenyl-1H-indol-3-yl)cyclobut-3-ene-1,2-dione] |  | 1.72 |  | 1.72 | 1.2 | 2100
6 | Cc1[nH]c2ccccc2c1-c1c(-c2cn(C)c3ccccc23)c(=O)c1=O [2y, 3-(1-Methyl-1H-indol-3-yl)-4-(2-methyl-1H-indol-3-yl)cyclobut-3-ene-1,2-dione] |  | 2.67 |  | 2.67 | 3.1 | 8400

Reference: article PMC8402075, “Synthesis and Antiplasmodial Activity of Bisindolylcyclobutenediones” (Molecules, 2021)
